{"source": "patent US9585380B2", "about": "“SSAT mRNA translation repression and activation” (TEMPLE UNIVERSITY—Of The Commonwealth System of Higher …, priority 2011, dated 2017)", "key": {"SSAT translation [1]": {"test_system": "SSAT translation", "experiment": "Reporter system: 5′ UTR lacking uORFs + SSAT coding sequence-luciferase chimeric construct in HEK293T cells", "assay_type": "cell-based, human", "conditions": "wild-type SSAT-luciferase construct, luciferase 16 hours after addition, compared to untreated", "protocol": "A chimeric construct (FIG. 15A) comprising a fragment of the 5′ UTR of SSAT lacking the uORF's (see FIG. 7), the SSAT coding sequence (see FIG. 8B), and the luciferase coding sequence was prepared. The SSAT coding sequence is linked in-frame to the luciferase coding sequence. The construct was prepared using appropriate primers and template nucleic acid, and conventional PCR methods. The construct was cloned into pLEX-MCS. To evaluate the effect of small molecules on translation of the chimeric construct, the chimeric construct was transiently transfected into HEK293T cells. The small molecule to be tested was added 24 hours after transfection of the vector. Luciferase activity was evaluated 16 hours after the addition of the small molecule using the ONE-Glo™ Luciferase Assay System (Promega, Madison, Wis.). The luminescence intensity was determined using a GloMax® luminometer (Promega).\nIn view of the discovery of the contribution of uORF's on translational repression of SSAT mRNA, a reporter system was developed to detect pharmacophores that can modulate SSAT translation. The reporter system is a chimeric construct comprising a 5′ UTR lacking the uORF's and the SSAT coding sequence linked in-frame to the luciferase coding sequence. (FIG. 15A). The 5′ UTR comprises 66 nucleotides of the native 5′UTR immediately upstream of the starting AUG codon.\nRelease of translational repression of the chimeric construct was tested in the presence of several small molecules. Release of translational repression was assessed by detection of luciferase activity. The small molecules tested were: DENSPM and three uncharacterized polyamine analogs designated polyamine analog 1; polyamine analog 2; and polyamine analog 3. Cisplatin and 5-FU were tested as negative controls."}, "SSAT translation [2]": {"test_system": "SSAT translation", "experiment": "Drug screening with mutant 6 SSAT-luciferase reporter construct in transfected HEK 293T cells", "assay_type": "cell-based, human", "conditions": "for inhibition at 10 µM / activation at 10 µM: Homo sapiens; for inhibition at 10 µM: 10 μM test compound, HEK 293T cells transfected with mutant 6 construct, luciferase signal twelve hours after treatment; for activation at 10 µM: 12 h", "protocol": "The mutant 6 chimeric construct of Example 4 (A424C; A426C; FIG. 18G) cloned into pLEX MCS plasmid was utilized in drug screening as follows. HEK 293T cells (ATCC) were grown in DMEM supplemented with 10% fetal bovine serum and antibiotics. The HEK 293T cells were transfected with the mutant 6/pLEX MCS plasmid using HTS-Jetpei transfection reagent (Polyplus Transfection, Illkirch, France). Transfected HEK293T cells were incubated overnight at 37° C. After 24 hours, cells transfected cells in 96-well plates used for screening were treated with 10 μM of test compound from a compound library in DMSO. Untreated cells were used as the negative control, and cells treated with 10 μM DENSPM comprised a positive control. The luciferase signaling in each plate was independently analyzed using a Glomax Luminometer (Promega Corp.) by comparing the signals against the controls twelve hours after treatment.\nThe procedure of Example 6 was followed, screening for compounds that increase SSAT translation. The agents listed in Table 11 were identified as increasing SSAT translation by at least 35% over basal SSAT translation."}, "SSAT translation [3]": {"test_system": "SSAT translation", "experiment": "DENSPM dose response curve with mutant 6 chimeric construct", "assay_type": "cell-based, human", "conditions": "mutant 6 construct, DENSPM 0.08 μM to 40 μM, HEK293T", "protocol": "The chimeric construct to be tested was transiently transfected into HEK293T cells. Twenty-four hours after transfection of the vector, DENSPM was added to the desired final concentration (ranged from 0.08 micromolar to 40 micromolar). Luciferase activity was evaluated 16 hours after the addition of DENSPM using the ONE-Glo™ Luciferase Assay System. The luminescence intensity was determined using a GloMax® luminometer (Promega). The experiment was run in triplicates to obtain error bars and evaluate reproducibility.\nA dose response experiment was performed using the mutant 6 chimeric construct. Specifically, the stimulation of mutant 6 translation by ten different concentrations of DENSPM was assayed. The DENSPM concentrations ranged from 0.08 micromolar (μM) to 40 μM. The dose response curve is depicted in FIG. 20."}, "nucleolin": {"test_system": "nucleolin", "conditions": "HEK293T exposed to 2 mM spermine for 12 hours versus controls", "procedure": "In addition, a sample of RNA-interacting proteins obtained from a Sepharose-streptomycin-chimeric RNA column described above was subjected to the same 2DE separation. The sample was initially concentrated to 30 μL using a Nanosep 3000 (Pall Corp) and dialyzed with 0.1×PBS for 12 h using a Slide-A-Lyzer 7K mini unit (Pierce Biotech). After separation by 2DE, the proteins were transferred to a nitrocellulose membrane using a Mini Trans Blot System (Biorad) and were Western blotted using anti-nucleolin monoclonal antibody."}, "SSAT translation [4]": {"test_system": "SSAT translation"}, "[5]": {"conditions": "procedure of Example 6 (10 μM, mutant 6 construct, HEK 293T), increase over basal SSAT translation"}}, "note": "Structures can show the parent of a compound that is named as a salt.", "data": [{"smiles": "N.N.[Cl][Pt][Cl]", "note": "[cisplatin, Cisplatin]", "values": [{"measurement": "Release of translational repression of the chimeric construct (luciferase activity)", "setting": "SSAT translation [1]", "value": "about the same as in the absence of a small molecule"}]}, {"smiles": "O=C1NCCN1CCN1CCC(c2cn(-c3ccc(F)cc3)c3ccc(Cl)cc23)CC1", "note": "[Sertindole, 1-[2-[4-[5-chloro-1-(4-fluorophenyl)-indol-3-yl]-1-piperidyl]ethyl]-imidazolidin-2-one]", "values": [{"measurement": "inhibition at 10 µM", "setting": "SSAT translation [2]", "value": 99.8, "unit": "%"}]}, {"smiles": "Cc1cc(/C=C/c2ccc3cc(N(C)C)ccc3[n+]2C)c(C)n1-c1ccccc1", "note": "[Pyrvinium pamoate, 2-[(E)-2-(2,5-dimethyl-1-phenylpyrrol-3-yl)ethenyl]-N,N,1-trimethylquinolin-1-ium-6-amine]", "values": [{"measurement": "inhibition at 10 µM", "setting": "SSAT translation [2]", "value": 92.5, "unit": "%"}]}, {"smiles": "CC(=O)OCC(=O)[C@@]12N=C(C)O[C@@H]1C[C@H]1[C@@H]3CCC4=CC(=O)C=C[C@]4(C)[C@H]3[C@@H](O)C[C@@]12C", "note": "[Deflazacort]", "values": [{"measurement": "activation at 10 µM", "setting": "SSAT translation [2]; [5]", "value": 37, "unit": "%"}]}, {"smiles": "CCCCCCCCN[C@H](C)[C@@H](O)c1ccc(SC(C)C)cc1", "note": "(relative stereo) [Suloctidil, (R*,S*)-4-((1-methylethyl)thio)-alpha-(1-(octylamino)ethyl)benzene-methanol]", "values": [{"measurement": "inhibition at 10 µM", "setting": "SSAT translation [2]", "value": 99.9, "unit": "%"}]}, {"smiles": "CCc1ccc(CCOc2ccc(CC3SC(=O)NC3=O)cc2)nc1", "note": "(centres unmarked) [Pioglitazone]", "values": [{"measurement": "activation at 10 µM", "setting": "SSAT translation [2]; [5]", "value": 50, "unit": "%"}]}, {"smiles": "C[C@H]1OC(OC2[C@@H](O)C[C@H](OC3[C@@H](O)CC(O[C@H]4CC[C@@]5(C)[C@H](CC[C@@H]6[C@@H]5C[C@@H](O)[C@]5(C)[C@@H](C7=CC(=O)OC7)CC[C@]65O)C4)O[C@@H]3C)O[C@@H]2C)C[C@H](O)C1O", "note": "(stereo in doubt) [Digoxin, 4-[(3S,5R,8R,9S,10S,12R,13S,14S)-3-[(2S,4S,5R,6R)-5-[(2S,4S,5R,6R)-5-[(2S,4S,5R,6R)-4,5-dihydroxy-6-methyl-oxan-2-yl]oxy-4-hydroxy-6-methyl-oxan-2-yl]oxy-4-hydroxy-6-methyl-oxan-2-yl]oxy-12,14-dihydroxy-10,13-dimethyl-1,2,3,4,5,6,7,8,9,11,12,15,16,17-tetradecahydrocyclopenta[a]phenanthren-17-yl]-5H-furan-2-one]", "values": [{"measurement": "inhibition at 10 µM", "setting": "SSAT translation [2]", "value": 93.9, "unit": "%"}]}, {"smiles": "CC=C(C)C(=O)O[C@H]1[C@H](OC(C)=O)[C@@]2(CO)C(CC1(C)C)C1=CCC3[C@@]4(C)CC[C@H](O[C@@H]5O[C@H](C(=O)O)[C@@H](O[C@@H]6O[C@H](CO)[C@@H](O)[C@H](O)[C@H]6O)[C@H](O)[C@H]5O[C@@H]5O[C@H](CO)[C@@H](O)[C@H](O)[C@H]5O)[C@](C)(CO)C4CC[C@@]3(C)[C@]1(C)C[C@H]2O", "note": "(stereo partly drawn) [Beta-Escin, (3α,5β,14β,16α,21α,22α)-22-acetoxy-16,23,28-trihydroxy-1-{[(2Z)-2-methylbut-2-enoyl]oxy}olean-12-en-3-yl-α-D-gulopyranosyl-(1→2)-[a-L-mannopyranosyl-(1→4)]-β-D-allopyranosiduronic acid]", "values": [{"measurement": "inhibition at 10 µM", "setting": "SSAT translation [2]", "value": 88.7, "unit": "%"}]}, {"smiles": "CC(C)(C)c1ccc(C(O)CCCN2CCC(C(O)(c3ccccc3)c3ccccc3)CC2)cc1", "note": "(racemic) [Terfenadine, (RS)-1-(4-tert-butylphenyl)-4-{4-[hydroxy(diphenyl)methyl]piperidin-1-yl}-butan-1-ol]", "values": [{"measurement": "inhibition at 10 µM", "setting": "SSAT translation [2]", "value": 100, "unit": "%"}]}, {"smiles": "NCCNCCNCCNCCN", "note": "[Tetraethylenepentamine pentahydrochloride]", "values": [{"measurement": "activation at 10 µM", "setting": "SSAT translation [2]; [5]", "value": 60, "unit": "%"}]}, {"smiles": "C[C@@H]1O[C@@H](O[C@@H]2C=C3CC[C@@H]4[C@H](CC[C@]5(C)[C@@H](c6ccc(=O)oc6)CC[C@]45O)[C@@]3(C)CC2)[C@H](O)[C@H](O)[C@H]1O", "note": "[Proscillaridin A, (3β)-3-[(6-deoxy-α-L-mannopyranosyl)oxy]-14-hydroxybufa-4,20,22-trienolide]", "values": [{"measurement": "inhibition at 10 µM", "setting": "SSAT translation [2]", "value": 94, "unit": "%"}]}, {"smiles": "O=c1[nH]cc(F)c(=O)[nH]1", "note": "[Mutant 5-FU, 5-FU]", "values": [{"measurement": "Release of translational repression of the chimeric construct (luciferase activity)", "setting": "SSAT translation [1]", "value": "about the same as in the absence of a small molecule"}]}, {"smiles": "CCNCCCNCCCNCCCNCC", "note": "[DENSPM, N^1-N^11 diethylnorspermine]", "values": [{"measurement": "Release of translational repression of the chimeric construct (luciferase activity)", "setting": "SSAT translation [1]", "value": "relieved"}, {"measurement": "Dose dependency of stimulation of translation of SSAT mRNA having CGC encoding Arg142", "setting": "SSAT translation [3]", "value": "dose dependency over at least two orders of magnitude"}]}, {"smiles": "C[C@]12CC[C@H]3C(=CCc4cc(O)ccc43)[C@@H]1CCC2=O", "note": "[Equilin]", "values": [{"measurement": "activation at 10 µM", "setting": "SSAT translation [2]; [5]", "value": 36, "unit": "%"}]}, {"smiles": "O=C1CCc2ccc(OCCCCN3CCN(c4cccc(Cl)c4Cl)CC3)cc2N1", "note": "[Aripiprazole, 7-{4-[4-(2,3-dichlorophenyl)piperazin-1-yl]butoxy}-3,4-dihydroquinolin-2(1H)-one]", "values": [{"measurement": "inhibition at 10 µM", "setting": "SSAT translation [2]", "value": 92.7, "unit": "%"}]}, {"smiles": "Cc1c(O)c(=O)n(-c2ccccc2)n1C", "note": "[Antipyrine, 4-hydroxy]", "values": [{"measurement": "% Increase in SSAT Translation", "setting": "SSAT translation [2]; [5]", "value": 41, "unit": "%"}]}, {"smiles": "NCCCNCCCCNCCCN", "note": "[spermine]", "values": [{"measurement": "55 KDa nucleolin isoform (2D-PAGE Western blot)", "setting": "nucleolin", "value": "absent"}, {"measurement": "SSAT expression (Western blot)", "setting": "SSAT translation [4]; constructs with or without uORFs, presence of spermine", "value": "stimulated expression"}, {"measurement": "Repression of eGFP expression by the SSAT stem loop (Loop eGFP, Western blot)", "setting": "SSAT translation [4]; exogenous spermine, HEK293T", "value": "partially reversed"}]}]}
